Measurements as given in PMC9494668 (ACS Omega, 2022).
≈ marks a conversion by molar mass, not a printed value. Like-named read-outs stand apart in the source and are kept apart here.

Experiments:
[1] = test system: Candida albicans, Candida glabrata, Candida krusei, and Candida tropicalis; details: cited from earlier work
[2] = test system: Escherichia coli ATCC 25922; test: Microtitre broth dilution MIC, Escherichia coli; format: cell-based; details: ATCC25922, read-out: MIC, EC
[3] = test system: Pseudomonas aeruginosa ATCC 27853; test: Microtitre broth dilution MIC, Pseudomonas aeruginosa; format: cell-based; details: ATCC27853, read-out: MIC, PA
[4] = test system: Streptococcus faecalis ATCC 29212; test: Microtitre broth dilution MIC, Streptococcus faecalis; format: cell-based; details: Enterococcus faecalis, ATCC29212, read-out: MIC, SF
[5] = test system: Salmonella enterica ATCC 10428; test: Microtitre broth dilution MIC, Salmonella enterica; format: cell-based; details: ATCC10428, read-out: MIC, SE
[6] = test system: methicillin-susceptible strains of Staphylococcus aureus ATCC 29213; test: Microtitre broth dilution MIC, MSSA; format: cell-based; details: ATCC29213|MSSA, read-out: MIC, MSSA
[7] = test system: methicillin-resistant strains of Staphylococcus aureus ATCC 43300; test: Microtitre broth dilution MIC, MRSA; format: cell-based; details: ATCC43300|MRSA, read-out: MIC, MRSA
[8] = test system: Candida albicans ATCC 10321; test: microbe, parasite or virus in culture; format: cell-based; details: ATCC10321, read-out: MIC, CA
[9] = test system: Aspergillus niger ATCC 16404; test: microbe, parasite or virus in culture; format: cell-based; details: ATCC16404, read-out: MIC, AN
[10] = test system: C26 colon carcinoma cell line; test: MTT cytotoxicity, C26; format: cell-based; details: 48 h, read-out: Anticancer activity IC50, C26
[11] = test system: HepG2 human hepatocyte carcinoma cell line; test: MTT cytotoxicity, HepG2; format: cell-based; details: HepG2, 48 h, read-out: Anticancer activity IC50, HepG2
[12] = test system: MCF7 human breast cancer cell line; test: MTT cytotoxicity, MCF7; format: cell-based; details: MCF7, 48 h, read-out: Anticancer activity IC50, MCF7
[13] = test system: H69PR human small cell lung cancer cell line; test: MTT cytotoxicity, H69PR; format: cell-based; details: 48 h, read-out: Anticancer activity IC50, H69PR
drug-resistant fungi = details: ref [17]; cited from earlier work

Row | SMILES | MIC50, Candida species [1] [µg/mL] | MIC [2] [µg/mL] | MIC [3] [µg/mL] | MIC [4] [µg/mL] | MIC [5] [µg/mL] | MIC [6] [µg/mL] | MIC [7] [µg/mL] | MIC [8] [µg/mL] | MIC [9] [µg/mL] | IC50 [10] [µM] | IC50 [11] [µM] | IC50 [12] [µM] | IC50 [13] [µM] | MIC50, Candida species ([1]; Candida albicans, glabrata, krusei, tropicalis, ref [17]) [µg/mL] | MIC50, drug-resistant fungi (drug-resistant fungi) [µg/mL]
1 | CN(C/C=C/c1ccccc1)Cc1cccc2ccccc12 [naftifine] | 0.25 to 2.00 | – | – | – | – | – | – | – | – | – | – | – | – | – | –
2 | COc1cc(OC)c2cc(C(=O)NCc3ccc(Cl)cc3)cc(O)c2c1 [8a, N-(4-chlorobenzyl)-4-hydroxy-6,8-dimethoxy-2-naphthamide] | – | 64 (≈ 172 µM) | 64 (≈ 172 µM) | 64 (≈ 172 µM) | 64 (≈ 172 µM) | 32 (≈ 86.1 µM) | 128 (≈ 344 µM) | 64 (≈ 172 µM) | 256 (≈ 689 µM) | 8.61 ± 1.49 | 10.1 ± 1.17 | 12.4 ± 1.34 | 25.4 ± 3.02 | – | –
3 | COc1cc(OC)c2c(O)cc(C(=O)NCCCN3CCOCC3)cc2c1 [4b, 4-Hydroxy-5,7-dimethoxy-N-(3-morpholinopropyl)-2-naphthamide] | – | 128 (≈ 342 µM) | 128 (≈ 342 µM) | 128 (≈ 342 µM) | 64 (≈ 171 µM) | 64 (≈ 171 µM) | 256 (≈ 684 µM) | 64 (≈ 171 µM) | 256 (≈ 684 µM) | 25.1 ± 3.23 | 17.8 ± 2.46 | 18.6 ± 1.84 | 53.7 ± 3.55 | – | –
4 | COc1cc(OC)c2c(O)cc(C(=O)NCc3ccc(Br)cc3)cc2c1 [7b, N-(4-bromobenzyl)-4-hydroxy-5,7-dimethoxy-2-naphthamide] | – | 64 (≈ 154 µM) | 64 (≈ 154 µM) | 32 (≈ 76.9 µM) | 32 (≈ 76.9 µM) | 32 (≈ 76.9 µM) | 64 (≈ 154 µM) | 64 (≈ 154 µM) | 256 (≈ 615 µM) | 9.83 ± 1.54 | 12.1 ± 1.09 | 11.5 ± 1.61 | 21.3 ± 3.04 | – | –
5 | OC(Cn1cncn1)(Cn1cncn1)c1ccc(F)cc1F [Flu, fluconazole, reference compound] | – | – | – | – | – | – | – | 4 (≈ 13.1 µM) | 128 (≈ 418 µM) | – | – | – | – | 0.25 to 2.00 | > 16
6 | COc1cc(OC)c2cc(C(=O)NCc3ccc(C)cc3)cc(O)c2c1 [5a, 4-Hydroxy-6,8-dimethoxy-N-(4-methylbenzyl)-2-naphthamide] | – | 64 (≈ 182 µM) | 64 (≈ 182 µM) | 64 (≈ 182 µM) | 64 (≈ 182 µM) | – | 128 (≈ 364 µM) | 128 (≈ 364 µM) | 256 (≈ 729 µM) | 9.21 ± 2.3 | 13.6 ± 1.37 | 10.3 ± 2.11 | 34.2 ± 5.64 | – | –
7 | COc1cc(OC)c2cc(C(=O)NCc3ccc(Br)cc3)cc(O)c2c1 [7a, N-(4-bromobenzyl)-4-hydroxy-6,8-dimethoxy-2-naphthamide] | – | 64 (≈ 154 µM) | 64 (≈ 154 µM) | 64 (≈ 154 µM) | 64 (≈ 154 µM) | – | 128 (≈ 307 µM) | 128 (≈ 307 µM) | 256 (≈ 615 µM) | 18.5 ± 1.73 | 16.7 ± 1.68 | 19.8 ± 1.59 | 23 ± 2.87 | – | –
